Data published in patent US10258072B2, “Environmentally friendly gelator using medium chain triglycerides and method of use” (Research Foundation of the City University of New York, priority 2014, dated 2019).

How the values were obtained:
[1] = Gel-to-sol transition temperature (Tgel) in oil bath; assay type: physicochemical
Procedure: (§1) Preparation and Characterization Molecular Gels. Gels were prepared by adding the solid glassy glycosides (10.0-50.0 mg gelator) to the desired solvent (1 mL). The mixture was then heated to disperse the gelator at five degrees below the boiling point of organic solvents, and at 125° C. for oils to produce a homogeneous sol. The sol was kept at this temperature for 10 minutes under constant agitation to fully disperse the gelator. The sol was then cooled to room temperature to allow for self-assembly and after a length of time (between 2-24 hours), the samples were inverted to confirm gel formation. The efficacy of gel formation was examined by determining the minimum gelation concentration (MGC) and gel-to-sol transition temperature (Tgel). Gel samples were diluted with solvent until after setting and vial inversion a gel, partial gel, or sol was formed. The gel transition temperature was determined by submersing a gel sample in an oil bath, and increasing the temperature until the gel flowed like a liquid, indicating the disassembly of the gelator structure.

[2] = Gelation test by vial inversion: gelation index and minimum gelation concentration (MGC); assay type: physicochemical; design: key to Gelation Index: I = Insoluble; PS = Partially Soluble
Procedure: as §1, with “structure. MGC was determined beginning from 5 wt. % samples (50 mg gelator in 1 mL solvent) or below the concentration of precipitation for gelators and diluting the samples until a sol is formed.” for “structure.”

SMILES: CCCCCCCCCCCCCCCCCC(=O)OCC1OC(Oc2ccc(CCC(C)=O)cc2)C(O)C(O)C1O (stereo not drawn) [RKG18, raspberry ketone glucoside stearate]
- Tgel ([1]; 5 wt. % gel in Coconut Oil): 111-112 °C
- Minimum Gelation Concentration ([2]; Coconut Oil (edible oil)): 0.28 wt. %
- Minimum Gelation Concentration ([2]; Grape seed Oil (edible oil)): 0.30 wt. %
- Minimum Gelation Concentration ([2]; Hazelnut Oil (edible oil)): 0.24 wt. %
- Minimum Gelation Concentration ([2]; Hexanes (organic solvent)): 0.24 wt. %
- Minimum Gelation Concentration ([2]; Jojoba Oil (edible oil)): 0.26 wt. %
- Minimum Gelation Concentration ([2]; Mineral Oil (organic solvent)): 0.24 wt. %
- Minimum Gelation Concentration ([2]; Red Palm Oil (edible oil)): 0.36 wt. %
- Minimum Gelation Concentration ([2]; Toluene (organic solvent)): 0.36 wt. %
- Gelation Index ([2]; Water (aqueous solvent)): I

SMILES: CCCCCCCC(=O)OC[C@H]1O[C@@H](Oc2ccc(CCC(C)=O)cc2)[C@H](O)[C@@H](O)[C@@H]1O [RKG8, ((2R,3S,4S,5R,6S)-3,4,5-trihydroxy-6-(4-(3-oxobutyl)phenoxy)tetrahydro-2H-pyran-2-yl) methyl octanoate]
- Tgel ([1]; 5 wt. % gel in Coconut Oil): 106-107 °C
- Tgel ([1]; 5 wt. % gel in Olive Oil): 108-110 °C
- Tgel ([1]; 5 wt. % gel in Toluene): 48-50 °C
- Minimum Gelation Concentration ([2]; Coconut Oil (edible oil)): 0.27 wt. %
- Minimum Gelation Concentration ([2]; Grape seed Oil (edible oil)): 0.25 wt. %
- Minimum Gelation Concentration ([2]; Hazelnut Oil (edible oil)): 0.26 wt. %
- Minimum Gelation Concentration ([2]; Hexanes (organic solvent)): 2.1 wt. %
- Minimum Gelation Concentration ([2]; Jojoba Oil (edible oil)): 0.25 wt. %
- Minimum Gelation Concentration ([2]; Mineral Oil (organic solvent)): 1.4 wt. %
- Minimum Gelation Concentration ([2]; Red Palm Oil (edible oil)): 0.34 wt. %
- Minimum Gelation Concentration ([2]; Toluene (organic solvent)): 0.5 wt. %
- Gelation Index ([2]; Water (aqueous solvent)): I

SMILES: CCCCCCCCC=CCCCCCCCC(=O)OCC1OC(Oc2ccc(CCC(C)=O)cc2)C(O)C(O)C1O (stereo not drawn) [RKGO, raspberry ketone glucoside oleate]
- Minimum Gelation Concentration ([2]; Coconut Oil (edible oil)): 0.54 wt. %
- Minimum Gelation Concentration ([2]; Grape seed Oil (edible oil)): 0.66 wt. %
- Minimum Gelation Concentration ([2]; Hazelnut Oil (edible oil)): 0.56 wt. %
- Minimum Gelation Concentration ([2]; Jojoba Oil (edible oil)): 0.48 wt. %
- Minimum Gelation Concentration ([2]; Mineral Oil (organic solvent)): 0.80 wt. %
- MGC ([2]; RKGO gels compared to saturated analogues): greater than 0.5 wt. %
- Minimum Gelation Concentration ([2]; Red Palm Oil (edible oil)): 0.72 wt. %
- Minimum Gelation Concentration ([2]; Toluene (organic solvent)): 0.73 wt. %

SMILES: CC(=O)CCc1ccc(O[C@@H]2O[C@H](CO)[C@@H](O)[C@H](O)[C@H]2O)cc1 [Raspberry ketone glucoside, reference compound]
- Gelation Index ([2]; Coconut Oil (edible oil)): I
- Gelation Index ([2]; Grape seed Oil (edible oil)): I
- Gelation Index ([2]; Hazelnut Oil (edible oil)): I
- Gelation Index ([2]; Hexanes (organic solvent)): I
- Gelation Index ([2]; Jojoba Oil (edible oil)): I
- Gelation Index ([2]; Mineral Oil (organic solvent)): I
- Gelation Index ([2]; Red Palm Oil (edible oil)): I
- Gelation Index ([2]; Toluene (organic solvent)): PS
- Gelation Index ([2]; Water (aqueous solvent)): PS
